Results from ChEMBL document CHEMBL4831511, “Fluorovinylsulfones and -Sulfonates as Potent Covalent Reversible Inhibitors of the Trypanosomal Cysteine Protease Rhodesain: Structure-Activity Relationship, Inhibition Mechanism, Metabolism, and In Vivo Studies” (J Med Chem, 2021).
pEC50, pKi: −log10 of the molar value. The source made the active and inactive calls. The calls are words filed in the database; no cut-off is given here.

Assays:
HeLa = assay: Cytotoxicity against human HeLa cells by Alamar blue assay; format: functional
[1] = biological target: Rhodesain (Trypanosoma brucei rhodesiense) (UniProt Q95PM0); assay: Reversible inhibition of Trypanosoma brucei rhodesain assessed as reversibility using Cbz-Phe-Arg-AMC as substrate by dilution assay
[2] = biological target: Rhodesain (Trypanosoma brucei rhodesiense) (UniProt Q95PM0); assay: Reversible inhibition of Trypanosoma brucei rhodesain assessed as reversibility by measuring residual enzymatic activity using Cbz-Phe-Arg-AMC as substrate after 1 hr by fluorometry based dialysis experiment relative to control
Rhodesain [3] = biological target: T1, Rhodesain (Trypanosoma brucei rhodesiense, UniProt Q95PM0); assay: Inhibition of Trypanosoma brucei rhodesain assessed as fluorescence using Cbz-Phe-Arg-AMC as substrate measured at second inhibition step by fluorometric enzyme assays
Homo sapiens [4] = species on record: Homo sapiens; assay: Inhibition of caspase-like activity of human 20S proteasome at 11 uM using Cbz-Leu-Leu-Glu-AMC as fluorogenic substrate by microplate reader relative to control
[5] = biological target: Rhodesain (Trypanosoma brucei rhodesiense) (UniProt Q95PM0); assay: Reversible inhibition of Trypanosoma brucei rhodesain assessed as fluorescence using Cbz-Phe-Arg-AMC as substrate by fluorometric enzyme assays
[6] = biological target: Proteasome Macropain subunit (Homo sapiens) (UniProt P49721); assay: Inhibition of trypsin-like activity of human 20S proteasome at 11 uM using boc-Leu-Arg-Arg-AMC as fluorogenic substrate by microplate reader relative to control
Rhodesain [7] = biological target: T1, Rhodesain; assay: Competitive inhibition of Trypanosoma brucei rhodesain assessed as fluorescence using Cbz-Phe-Arg-AMC as substrate by fluorometric enzyme assays
Procathepsin L = Procathepsin L (Homo sapiens, UniProt P07711); assay: Inhibition of human liver CatL assessed as fluorescence using Cbz-Phe-Arg-AMC as substrate measured at second inhibition step by fluorometric enzyme assays
Dengue virus = assay: Inhibition of Dengue virus NS2B-NS3 protease assessed as fluorescent emission using boc-Gly-Arg-Arg-AMC at 11 uM by microplate reader relative to control
[8] = tested on: cathepsin L (CatL) versus rhodesain; assay: Selectivity index, ratio of Ki for human liver CatL to Trypanosoma brucei rhodesain; conditions: read-out: Selectivity Index
[9] = tested on: Trypanosoma brucei brucei; assay: Antiprotozoal activity against Trypanosoma brucei brucei TC211 assessed as luminescence incubated for 24 to 48 hrs by ATPlite assay; format: functional, organism-based
Cathepsin B = Cathepsin B (Homo sapiens, UniProt P07858); assay: Inhibition of human liver CatB assessed as fluorescence using Cbz-Phe-Arg-AMC as substrate at 11 uM by fluorometric enzyme assays
Homo sapiens [10] = species on record: Homo sapiens; assay: Inhibition of alpha-chymotrypsin-like activity of human 20S proteasome at 11 uM using Succ-Leu-Leu-Val-Tyr-AMC as fluorogenic substrate by microplate reader relative to control
[11] = tested on: Trypanosoma brucei brucei; assay: Antiprotozoal activity against Trypanosoma brucei brucei BS449 assessed as luminescence incubated for 24 to 48 hrs by ATPlite assay; format: functional, organism-based
J774.1 = assay: Cytotoxicity against mouse J774.1 cells by Alamar blue assay; format: functional

T1 sequence (Q95PM0 whole entry): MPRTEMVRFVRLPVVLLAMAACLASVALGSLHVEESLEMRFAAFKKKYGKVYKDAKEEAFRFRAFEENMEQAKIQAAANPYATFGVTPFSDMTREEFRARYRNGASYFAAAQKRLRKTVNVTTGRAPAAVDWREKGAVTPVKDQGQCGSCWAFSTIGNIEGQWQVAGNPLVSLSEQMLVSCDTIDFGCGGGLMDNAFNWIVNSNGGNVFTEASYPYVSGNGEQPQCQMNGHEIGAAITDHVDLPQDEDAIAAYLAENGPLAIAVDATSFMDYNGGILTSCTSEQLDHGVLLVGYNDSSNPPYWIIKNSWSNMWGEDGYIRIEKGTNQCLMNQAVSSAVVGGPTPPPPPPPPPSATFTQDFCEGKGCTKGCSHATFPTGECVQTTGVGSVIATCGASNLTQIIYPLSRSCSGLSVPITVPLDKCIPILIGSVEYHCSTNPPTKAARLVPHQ
Sequence of Rhodesain (Trypanosoma brucei rhodesiense) (Q95PM0 1-450): as the sequence (Q95PM0 whole entry) above
Sequence of Proteasome Macropain subunit (Homo sapiens) (P49721 whole entry): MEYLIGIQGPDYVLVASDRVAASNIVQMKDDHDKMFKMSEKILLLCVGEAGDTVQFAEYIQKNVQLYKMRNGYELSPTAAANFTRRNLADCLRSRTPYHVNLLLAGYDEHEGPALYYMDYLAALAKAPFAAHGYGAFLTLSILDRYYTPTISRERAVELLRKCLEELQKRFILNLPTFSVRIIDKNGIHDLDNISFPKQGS
Sequence of Procathepsin L (P07711 whole entry): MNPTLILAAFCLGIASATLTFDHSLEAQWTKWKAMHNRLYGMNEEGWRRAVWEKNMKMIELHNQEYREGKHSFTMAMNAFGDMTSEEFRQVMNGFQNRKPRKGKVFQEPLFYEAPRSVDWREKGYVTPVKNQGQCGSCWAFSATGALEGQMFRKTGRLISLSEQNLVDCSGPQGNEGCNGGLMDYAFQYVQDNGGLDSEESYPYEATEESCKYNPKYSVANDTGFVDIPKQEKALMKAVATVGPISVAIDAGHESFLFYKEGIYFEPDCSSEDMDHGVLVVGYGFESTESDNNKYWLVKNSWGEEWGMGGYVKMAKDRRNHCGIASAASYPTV

Compound | CC50 (HeLa) [µM] | Activity [1] | Activity [2] [%] | pKi (Rhodesain [3]) | inhibition (Homo sapiens [4]) | Activity [5] | inhibition [6] | pKi (Rhodesain [7]) | pKi (Procathepsin L) | inhibition (Dengue virus) | selectivity ratio [8] | pEC50 [9] | inhibition (Cathepsin B) [%] | inhibition (Homo sapiens [10]) | pEC50 [11] | CC50 (J774.1) [µM]
Cc1ccc(C[C@H](NC(=O)c2ccncc2)C(=O)N[C@H](/C=C(\F)S(=O)(=O)Cc2ccccc2)CCc2ccccc2)cc1 | > 100 | Active | 47 | 7.82 | inactive | Active | inactive | 7.60 | 6.74 | inactive | 12 | 5.85 | 35 | inactive |  | 
O=C(N[C@@H](Cc1ccccc1)C(=O)N[C@H](/C=C(\F)S(=O)(=O)c1ccccc1)CCc1ccccc1)c1ccncc1 | > 100 | Active |  |  | 41% | Active | inactive | 7.33 |  | inactive |  |  |  | 10% | 5.52 | > 100
